In assay [1] the target is other members of the PDE family (Homo sapiens, UniProt O00408). The assay is described as follows: In vitro PDE selectivity assay (SPA), other members of the PDE family (protocols in Table A). The note with it: hPDE2A; read-out: PDE 2A (expressed as pIC50) (converted). The assay is classed as biochemical. As to the method:
Rat recombinant PDE10A (rPDE10A2) was expressed in Sf9 cells using a recombinant rPDE10A baculovirus construct. Cells were harvested after 48 h of infection and the rPDE10A protein was purified by metal chelate chromatography on Ni-sepharose 6FF. Tested compounds were dissolved and diluted in 100% DMSO to a concentration 100 fold of the final concentration in the assay. Compound dilutions (0.4 μl) were added in 384 well plates to 20 μl of incubation buffer (50 mM Tris pH 7.8, 8.3 mM MgCl2, 1.7 mM EGTA). 10 μl of rPDE10A enzyme in incubation buffer was added and the reaction was started by addition of 10 μl substrate to a final concentration of 60 nM cAMP and 0.008 μCi ^3H-cAMP. The reaction was incubated for 60 minutes at room temperature. After incubation, the reaction was stopped with 20 μl of stop solution consisting of 17.8 mg/ml PDE SPA (scintillation proximity assay) beads. After sedimentation of the beads during 30 minutes the radioactivity was measured in a Perkin Elmer Topcount scintillation counter and results were expressed as cpm. For blanc values the enzyme was omitted from the reaction and replaced by incubation buffer. Control values were obtained by addition of a final concentration of 1% DMSO instead of compound. The same assay principle is applied for the measurement of the affinity of the compound for other members of the PDE family with appropriate modifications in incubation buffer, substrate concentration, incubation time and stop solution. An overview of the different protocols is presented in table A. A best fit curve is fitted by a minimum sum of squares method to the plot of % of control value substracted with blanc value versus compound concentration and the half maximal inhibitory concentration (IC50) value is derived from this curve.
The compounds of the invention are generally selective for PDE10 compared to other PDEs and there are a few that also have affinity for PDE1B1, 4D3 and 5A3.

The target of assay [2] is T1, Rat recombinant PDE10A (rPDE10A2) (Rattus norvegicus, UniProt Q9QYJ6).
T1 construct: inferred from the Ni metal chelate purification; made in house; host or cells: Sf9 insect cells (baculovirus)
T1 sequence (Q9QYJ6 1-794): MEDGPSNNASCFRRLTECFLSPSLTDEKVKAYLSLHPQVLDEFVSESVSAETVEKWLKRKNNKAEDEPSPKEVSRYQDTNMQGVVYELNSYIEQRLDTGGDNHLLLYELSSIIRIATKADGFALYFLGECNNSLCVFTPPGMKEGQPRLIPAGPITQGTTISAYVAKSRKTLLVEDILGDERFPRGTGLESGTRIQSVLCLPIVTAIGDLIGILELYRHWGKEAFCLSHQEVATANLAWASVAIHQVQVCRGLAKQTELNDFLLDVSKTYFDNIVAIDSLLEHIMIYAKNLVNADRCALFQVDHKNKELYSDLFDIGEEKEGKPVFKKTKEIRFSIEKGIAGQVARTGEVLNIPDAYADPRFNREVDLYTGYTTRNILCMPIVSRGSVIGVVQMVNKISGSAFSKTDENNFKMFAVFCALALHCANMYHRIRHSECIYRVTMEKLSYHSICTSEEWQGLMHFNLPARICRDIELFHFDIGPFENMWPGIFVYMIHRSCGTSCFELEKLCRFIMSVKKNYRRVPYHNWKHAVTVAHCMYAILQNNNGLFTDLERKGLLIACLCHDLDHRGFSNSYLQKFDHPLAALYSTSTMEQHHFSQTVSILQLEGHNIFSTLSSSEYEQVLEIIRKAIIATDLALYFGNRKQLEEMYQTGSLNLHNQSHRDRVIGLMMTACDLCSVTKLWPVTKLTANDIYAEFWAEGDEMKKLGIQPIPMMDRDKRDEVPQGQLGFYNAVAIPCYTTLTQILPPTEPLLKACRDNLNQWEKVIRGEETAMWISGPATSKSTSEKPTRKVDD
The assay is described as follows: In vitro assay PDE10A (SPA, 3H-cAMP). It counts as biochemical. The procedure, abridged: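 Rat PDE10A2 expressed in Sf9 cells and Ni-purified; incubated with 60 nM cAMP plus 0.008 μCi 3H-cAMP in 50 mM Tris pH 7.8, 8.3 mM MgCl2, 1.7 mM EGTA for 60 min at room temperature. Product quantified by scintillation proximity counting; final DMSO 1%.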

Assay [3] deals with apomorphine-induced stereotypy in rats. The assay is described as follows: Apomorphine-induced stereotypy in rats (APO). The assay is classed as in vivo. As to conditions: Rattus norvegicus, n.d.: found not active at threshold dose 2.5 mg/kg or 10 mg/kg (a). The protocol:
Apomorphine (1.0 mg/kg, i.v.)-induced stereotypy (compulsive sniffing, licking, chewing) was scored every 5 min over the first hour after injection of apomorphine, following a 1 hour interval pre-treatment with the test compound. The score system was: (3) pronounced, (2) moderate, (1) slight, and (0) absent.

[4] abbreviates: Table 4 in vitro selectivity, read-out: PDE 10A2 (expressed as pIC50) (converted).
Where [5] appears, read: pIC50 corresponds to the −log IC50 expressed in mol/L, read-out: PDE10A2 pIC50 (converted).
[6] abbreviates: po, * not soluble, tested orally as a suspension.

A word on the ED50: it is the dose at which the effect has come halfway, by size or by number of responders.

Like-named read-outs stand apart in the source and are kept apart here.

Chain of other members of the PDE family (O00408 whole entry): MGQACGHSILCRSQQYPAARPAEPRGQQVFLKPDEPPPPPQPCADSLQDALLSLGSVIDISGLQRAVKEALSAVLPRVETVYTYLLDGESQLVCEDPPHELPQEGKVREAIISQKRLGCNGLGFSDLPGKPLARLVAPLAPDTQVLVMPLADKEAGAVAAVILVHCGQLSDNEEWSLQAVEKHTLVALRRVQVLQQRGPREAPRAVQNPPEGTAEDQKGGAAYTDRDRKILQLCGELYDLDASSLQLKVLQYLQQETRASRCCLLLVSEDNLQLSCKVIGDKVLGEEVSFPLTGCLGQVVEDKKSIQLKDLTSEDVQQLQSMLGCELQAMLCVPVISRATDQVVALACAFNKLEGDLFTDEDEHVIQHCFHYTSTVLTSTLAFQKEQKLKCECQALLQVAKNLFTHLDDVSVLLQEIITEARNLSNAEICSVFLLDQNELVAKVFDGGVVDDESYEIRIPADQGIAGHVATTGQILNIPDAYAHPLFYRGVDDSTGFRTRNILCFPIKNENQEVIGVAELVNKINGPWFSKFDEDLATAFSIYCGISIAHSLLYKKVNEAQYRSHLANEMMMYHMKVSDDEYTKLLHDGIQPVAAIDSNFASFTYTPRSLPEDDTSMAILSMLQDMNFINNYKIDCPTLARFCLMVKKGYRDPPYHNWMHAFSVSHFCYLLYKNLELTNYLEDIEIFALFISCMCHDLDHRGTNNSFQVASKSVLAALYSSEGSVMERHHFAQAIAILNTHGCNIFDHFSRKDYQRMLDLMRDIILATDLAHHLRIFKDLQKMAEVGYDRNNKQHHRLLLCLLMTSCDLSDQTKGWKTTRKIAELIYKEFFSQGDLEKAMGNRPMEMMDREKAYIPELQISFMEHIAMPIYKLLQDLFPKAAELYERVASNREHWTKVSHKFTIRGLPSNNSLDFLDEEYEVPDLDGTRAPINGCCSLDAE

On to `COCCc1ccc(-c2cnc3c(-c4ccncc4)ccnn23)cn1` [compound 57, 3-[6-(2-methoxyethyl)-3-pyridinyl]-8-(4-pyridinyl)-imidazo[1,2-b]pyridazine], for which the IC50 in assay [1] is more than 10 µM; in assay [2] (setting [4]), 0.427 µM; in assay [2] (setting [5]), 0.427 µM.

Take `COCCOc1ccc(-c2c(C3CC3)nc3c(N4CCOCC4)cc(C)nn23)cn1` [compound 74, 2-cyclopropyl-3-[6-(2-methoxyethoxy)-3-pyridinyl]-6-methyl-8-(4-morpholinyl)-imidazo[1,2-b]pyridazine]: the IC50 was more than 10 µM in assay [1], 0.589 µM in assay [2] (setting [4]) and 0.589 µM in assay [2] (setting [5]).

Regarding `Cc1cc(N2CCOCC2)c2nc(C3CC3)c(-c3ccc(N4CCOCC4)nc3)n2n1` [compound 75, 2-cyclopropyl-6-methyl-8-(4-morpholinyl)-3-[6-(4-morpholinyl)-3-pyridinyl]-imidazo[1,2-b]pyridazine], the IC50 in assay [1] was more than 10 µM; in assay [2] (setting [4]), 0.447 µM; in assay [2] (setting [5]) it was 0.447 µM.

For `CCc1ccc(-c2c(C3CC3)nc3c(N4CCOCC4)cc(C)nn23)cn1` [compound 84, 2-cyclopropyl-3-(6-ethyl-3-pyridinyl)-6-methyl-8-(4-morpholinyl)-imidazo[1,2-b]pyridazine], the IC50 is more than 10 µM in assay [1], 0.372 µM in assay [2] (setting [4]) and 0.372 µM in assay [2] (setting [5]).

With `COCCc1ccc(-c2c(C3CC3)nc3c(N4CCOCC4)cc(C(F)(F)F)nn23)cn1` [compound 85, 2-cyclopropyl-3-[6-(2-methoxyethyl)-3-pyridinyl]-8-(4-morpholinyl)-6-(trifluoromethyl)-imidazo[1,2-b]pyridazine], the IC50 was more than 10 µM in assay [1], 0.661 µM in assay [2] (setting [4]) and 0.661 µM in assay [2] (setting [5]).

For the compound `Cc1nc2c(N3CCOCC3)cc(C3CC3)nn2c1-c1ccc(N2CCOCC2)nc1` [compound 94, 6-cyclopropyl-2-methyl-8-(4-morpholinyl)-3-[6-(4-morpholinyl)-3-pyridinyl]-imidazo[1,2-b]pyridazine], the values for the IC50 in assay [1], in assay [2] (setting [4]) and in assay [2] (setting [5]) were more than 10 µM, 0.38 µM and 0.38 µM, respectively.

In the case of `Cc1cc(N2CCOCC2)c2nc(C3CC3)c(-c3ccc(N4CCNCC4)nc3)n2n1` [compound 100, 2-cyclopropyl-6-methyl-8-(4-morpholinyl)-3-[6-(1-piperazinyl)-3-pyridinyl]-imidazo[1,2-b]pyridazine], the IC50 in assay [1] was more than 10 µM; in assay [2] (setting [4]) it was 0.724 µM; in assay [2] (setting [5]), 0.724 µM.

For `Cc1cc(N2CCOCC2)c2nc(C)c(-c3ccc(C4CC4)nc3)n2n1` [compound 110, 3-(6-cyclopropyl-3-pyridinyl)-2,6-dimethyl-8-(4-morpholinyl)-imidazo[1,2-b]pyridazine], the IC50 in assay [1] was more than 10 µM; in assay [2] (setting [4]), 0.331 µM; in assay [2] (setting [5]), 0.331 µM.

For the compound `c1cc(N2CCOCC2)c2ncc(-c3ccc(C4CC4)nc3)n2n1` [compound 112, 3-(6-cyclopropyl-3-pyridinyl)-8-(4-morpholinyl)-imidazo[1,2-b]pyridazine], the IC50 in assay [1] is 8.13 µM; in assay [2] (setting [4]), 0.427 µM; in assay [2] (setting [5]), 0.427 µM.

Consider `Cc1nc2c(N3CCOCC3)ccnn2c1-c1cnn(Cc2cccnc2)c1` [compound 115, 2-methyl-8-(4-morpholinyl)-3-[1-(3-pyridinylmethyl)-1H-pyrazol-4-yl]-imidazo[1,2-b]pyridazine], for which the ED50 in assay [3] (setting [6]) is more than 10 mg/kg. In addition, the IC50 in assay [2] (setting [5]) is 0.0355 µM.

`Cc1nc2c(N3CCOCC3)ccnn2c1-c1cn[nH]c1` [compound 116, 2-methyl-8-(4-morpholinyl)-3-(1H-pyrazol-4-yl)-imidazo[1,2-b]pyridazine] yielded an ED50 in assay [3] (setting [6]) of more than 10 mg/kg. In assay [2] (setting [5]), the IC50 is 0.132 µM.

`COCCn1cc(-c2c(C3CC3)nc3c(N4CCOCC4)ccnn23)cn1` [compound 119, 2-cyclopropyl-3-[1-(2-methoxyethyl)-1H-pyrazol-4-yl]-8-(4-morpholinyl)-imidazo[1,2-b]pyridazine] gave a 50% effective dose (ED50) in assay [3] (setting [6]) of more than 10 mg/kg. Also, the IC50 in assay [2] (setting [5]) was 0.0617 µM.

Regarding `COCCn1cc(-c2c(C(C)C)nc3c(N4CCOCC4)ccnn23)cn1` [compound 120, 3-[1-(2-methoxyethyl)-1H-pyrazol-4-yl]-2-(1-methylethyl)-8-(4-morpholinyl)-imidazo[1,2-b]pyridazine], the ED50 in assay [3] (not further tested) is more than 10 mg/kg. Besides, the IC50 in assay [2] (setting [5]) was 0.692 µM.

In assay [3] (not further tested), `COCCn1cc(-c2c(C(F)(F)F)nc3c(-c4ccncc4)ccnn23)cn1` [compound 122, 3-[1-(2-methoxyethyl)-1H-pyrazol-4-yl]-8-(4-pyridinyl)-2-(trifluoromethyl)-imidazo[1,2-b]pyridazine] showed an ED50 of more than 2.5 mg/kg. Further, in assay [2] (setting [5]), the IC50 was 0.0302 µM.

In turn, `COC(C)(C)Cn1cc(-c2c(C)nc3c(-c4ccncc4)ccnn23)cn1` [compound 123, 3-[1-(2-methoxy-2-methylpropyl)-1H-pyrazol-4-yl]-2-methyl-8-(4-pyridinyl)-imidazo[1,2-b]pyridazine] came in with an ED50 in assay [3] (not further tested) of more than 2.5 mg/kg. In assay [2] (setting [5]), the IC50 was 0.0275 µM.

In assay [3] (not further tested), `COCCn1cc(-c2c(C)nc3c(-c4ccncc4)cc(C4CC4)nn23)cn1` [compound 126, 6-cyclopropyl-3-[1-(2-methoxyethyl)-1H-pyrazol-4-yl]-2-methyl-8-(4-pyridinyl)-imidazo[1,2-b]pyridazine] returned a 50% effective dose (ED50) of more than 2.5 mg/kg. In addition, the IC50 in assay [2] (setting [5]) was 0.0501 µM.

In assay [3] (setting [6]), `COCCn1cc(-c2c(C(F)(F)F)nc3c(N4CCOCC4)ccnn23)cn1` [compound 139, 3-[1-(2-methoxyethyl)-1H-pyrazol-4-yl]-8-(4-morpholinyl)-2-(trifluoromethyl)-imidazo[1,2-b]pyridazine] displayed an ED50 of more than 2.5 mg/kg. Also, the IC50 in assay [2] (setting [5]) is 0.0692 µM.

For the compound `FC(F)(F)Cn1cc(-c2c(C3CC3)nc3c(-c4ccncc4)ccnn23)cn1` [compound 141, 2-cyclopropyl-8-(4-pyridinyl)-3-[1-(2,2,2-trifluoroethyl)-1H-pyrazol-4-yl]-imidazo[1,2-b]pyridazine], the ED50 in assay [3] (setting [6]) was more than 2.5 mg/kg. Also, the IC50 in assay [2] (setting [5]) was 0.01 µM.

Regarding `COCCc1ccc(-c2c(C(F)(F)F)nc3c(N4CCOCC4)ccnn23)cn1` [compound 145, 3-[6-(2-methoxyethyl)-3-pyridinyl]-8-(4-morpholinyl)-2-(trifluoromethyl)-imidazo[1,2-b]pyridazine], the ED50 in assay [3] (not further tested) is more than 2.5 mg/kg. Moreover, the IC50 in assay [2] (setting [5]) was 0.0589 µM.

As for `COCCOc1cncc(-c2c(C)nc3c(-c4ccncc4)ccnn23)c1` [compound 149, 3-[5-(2-methoxyethoxy)-3-pyridinyl]-2-methyl-8-(4-pyridinyl)-imidazo[1,2-b]pyridazine], the 50% effective dose (ED50) in assay [3] (not further tested) is more than 2.5 mg/kg. Moreover, the IC50 in assay [2] (setting [5]) was 0.151 µM.

Values taken from patent publication US20120220581A1, “IMIDAZO[1,2-b]PYRIDAZINE DERIVATIVES AND THEIR USE AS PDE10 INHIBITORS” (Janssen-Cilag, S.A., priority 2009, published 2012).
